Assay type in all cases: in vivo
Assay [1] has as its system Monocots. The assay is described as follows: Herbicidal activity, preemergence, monocot weeds (Table II). As to conditions: pre-emergence, 336 h, about 2 weeks, read-out: % control (percent of plants killed); for pest or weed control at 2241.7 g/ha: 2 lb./A.; for pest or weed control at 4483.4 g/ha: 4 lb./A. The method, then:
(§1) Using the procedure described below, diphenyl ethers were evaluated for control of the following weeds: […]
(§2) barnyardgrass (Echinochloa crusgalli) crabgrass (Digitaria spp.) nutsedge (Cyperus esculentus)
(§3) At 2 and 4 pounds per acre:
(§4) **Bermudagrass (Cynodon dactylon)
(§5) *downy brome (Bromus tectorum) foxtail (Setaria faberii)
(§6) Johnsongrass (Sorghum halepense) […]
(§7) quackgrass (Agropyron repens)
(§8) *ryegrass (Lolium perenne)
(§9) *yellow millet (Panicum miliaceum)
(§10) The following test procedure is employed. Seeds of selected crops and weeds are planted in soil in flats. For preemergence tests, the flats are treated with the test compound immediately after the planting. For postemergence tests, the seeds are allowed to germinate, and after 2 weeks the flats are treated with the test compound. The compound to be evaluated is dissolved in acetone, diluted with water, and sprayed over the flats using a carrier volume equivalent to 50 gallons per acre at the rate of application (pounds per acre, lb/A.) specified in the tables. About 2 weeks after the application of the test compound, the state of growth of the plants is observed and the phytotoxic effect of the compound is evaluated. Table II gives the average percent control achieved by the test compounds in terms of the percent of the plants which are killed by the compounds.

The subject of assay [2] is Dicots. The assay is described as follows: Herbicidal activity, preemergence, dicot weeds (Table II). As to conditions: pre-emergence, 336 h, about 2 weeks, read-out: % control (percent of plants killed); for pest or weed control at 2241.7 g/ha: 2 lb./A.; for pest or weed control at 4483.4 g/ha: 4 lb./A. The method, then: as §1
(§11) bindweed (Convolvulus arvensis) curly dock (Remex crispus) velvetleaf (Abutilon theophrasti) wild mustard (Brassica haber)
(§12) At 2 and 4 pounds per acre: […]
(§13) cocklebur (Xanthium pensylvanicum)
(§14) **coffeeweed (Sesbania macrocarpa)
(§15) *curly dock (Rumex crispus)
(§16) *lambsquarters (Chenopodium album) morningglory (Ipomoea purpurea)
(§17) *pigweed (Amaranthus retroflexus)
(§18) **ragweed (Ambrosia artemisiifolia)
(§19) *smartweed (Polygonum pensylvanicum)
(§20) **tomato (Lycopersicon esculentum)
(§21) *wild carrot (Daucus carota)
(§22) *wild mustard (Brassica haber)
as §10

Assay [3] relates to Dicots. The assay is described as follows: Herbicidal activity, postemergence, dicot weeds (Table II). To be noted: post-emergence, 336 h, about 2 weeks, read-out: % control (percent of plants killed); for pest or weed control at 2241.7 g/ha: 2 lb./A.; for pest or weed control at 4483.4 g/ha: 4 lb./A. The method, then: as §1, §11, §12, §13, §14, §15, §16, §17, §18, §19, §20, §21, §22, §10

The subject of assay [4] is Monocots. The assay is described as follows: Herbicidal activity, postemergence, monocot weeds (Table II). To be noted: post-emergence, 336 h, about 2 weeks, read-out: % control (percent of plants killed); for pest or weed control at 2241.7 g/ha: 2 lb./A.; for pest or weed control at 4483.4 g/ha: 4 lb./A. The method, then: as §1, §2, §3, §4, §5, §6, §7, §8, §9, §10

As to `O=C(O)COc1cc(Oc2ccc(C(F)(F)F)cc2Cl)ccc1[N+](=O)[O-]` [Example 23], the pest or weed control at 2241.7 g/ha in the assay with Monocots [1] amounted to 55%; in the assay on Dicots [2], 87%; with Dicots [3] it was 100%; in the assay on Monocots [4], 71%. Besides, the pest or weed control at 4483.4 g/ha with Monocots [1] is 90%; with Dicots [2], 64%; with Dicots [3] it was 100%; in the assay on Monocots [4], 82%.

As for `CCOC(=O)COc1cc(Oc2ccc(C(F)(F)F)cc2Cl)ccc1[N+](=O)[O-]` [Example 24], the pest or weed control at 2241.7 g/ha in the assay on Monocots [1] is 62%; with Dicots [2], 97%; in the assay on Dicots [3], 100%; with Monocots [4], 84%. For the same molecule, the pest or weed control at 4483.4 g/ha in the assay with Monocots [1] worked out at 91%; in the assay on Dicots [2], 68%; in the assay with Dicots [3], 99%; with Monocots [4] it was 86%.

Take `CC(Oc1cc(Oc2ccc(C(F)(F)F)cc2Cl)ccc1[N+](=O)[O-])C(=O)O` (stereo not drawn) [Example 25, 2-Chloro-α,α,α-trifluoro-p-tolyl-3-(1-carboxyethoxy)-4-nitrophenyl ether]: the pest or weed control at 2241.7 g/ha came to 40% in the assay with Monocots [1], 93% in the assay on Dicots [2], 100% in the assay with Dicots [3] and 88% with Monocots [4]. The pest or weed control at 4483.4 g/ha in the assay on Monocots [1] was found to be 87%; in the assay on Dicots [2] it was 88%; in the assay on Dicots [3], 100%; with Monocots [4], 97%.

For the molecule `Nc1cc(Oc2ccc(C(F)(F)F)cc2Cl)ccc1[N+](=O)[O-]` [Example 27], the pest or weed control at 2241.7 g/ha stood at 74% in the assay with Monocots [1], 90% in the assay with Dicots [2], 100% in the assay on Dicots [3] and 99% with Monocots [4]. The pest or weed control at 4483.4 g/ha is 76% in the assay with Monocots [1], 98% with Dicots [2], 100% in the assay with Dicots [3] and 82% in the assay on Monocots [4].

For the molecule `O=[N+]([O-])c1ccc(Oc2ccc(C(F)(F)F)cc2Cl)cc1N1CCOCC1` [Example 28, 2-chloro-α,α,α-trifluoro-p-tolyl-3-morpholino-4-nitrophenyl ether], the pest or weed control at 2241.7 g/ha in the assay with Monocots [1] was found to be 79%; in the assay on Dicots [2], 79%; in the assay on Dicots [3], 100%; with Monocots [4], 73%. Further, the pest or weed control at 4483.4 g/ha worked out at 74% in the assay on Monocots [1], 95% in the assay with Dicots [2], 99% in the assay with Dicots [3] and 73% in the assay with Monocots [4].

Take `C#CCCOc1cc(Oc2ccc(C(F)(F)F)cc2Cl)ccc1[N+](=O)[O-]` [Example 29]: the pest or weed control at 2241.7 g/ha was 66% with Monocots [1], 84% in the assay on Dicots [2], 100% with Dicots [3] and 97% in the assay with Monocots [4]. The pest or weed control at 4483.4 g/ha was 74% in the assay on Monocots [1], 73% with Dicots [2], 100% in the assay with Dicots [3] and 79% in the assay with Monocots [4].

As to `CC(=O)CCOc1cc(Oc2ccc(C(F)(F)F)cc2Cl)ccc1[N+](=O)[O-]` [Example 31], the pest or weed control at 2241.7 g/ha was determined as 68% in the assay on Monocots [1], 69% in the assay on Dicots [2], 100% in the assay on Dicots [3] and 68% in the assay with Monocots [4]. For the same molecule, the pest or weed control at 4483.4 g/ha with Monocots [1] worked out at 74%; in the assay with Dicots [2], 99%; with Dicots [3] it was 100%; in the assay with Monocots [4] it was 61%.

For `CC(=O)C(C)Oc1cc(Oc2ccc(C(F)(F)F)cc2Cl)ccc1[N+](=O)[O-]` (centres unmarked) [Example 32], the pest or weed control at 2241.7 g/ha in the assay with Monocots [1] was determined as 81%; in the assay with Dicots [2], 81%; in the assay on Dicots [3] it was 100%; with Monocots [4] it was 100%. Moreover, the pest or weed control at 4483.4 g/ha came to 86% with Monocots [1], 100% in the assay on Dicots [2], 100% in the assay with Dicots [3] and 86% in the assay with Monocots [4].

For `CNC(=O)Oc1cc(Oc2ccc(C(F)(F)F)cc2Cl)ccc1[N+](=O)[O-]` [Example 33], the pest or weed control at 2241.7 g/ha with Monocots [1] was 79%; in the assay with Dicots [2], 74%; with Dicots [3] it was 100%; in the assay on Monocots [4] it was 65%. The pest or weed control at 4483.4 g/ha stood at 53% in the assay on Monocots [1], 99% in the assay on Dicots [2], 98% with Dicots [3] and 32% with Monocots [4].

For `O=C(CCl)Nc1cc(Oc2ccc(C(F)(F)F)cc2Cl)ccc1[N+](=O)[O-]` [Example 35, 2-chloro-α,α,α-trifluoro-p-tolyl-3-chloroacetamido-4-nitrophenyl ether], the pest or weed control at 2241.7 g/ha in the assay on Monocots [1] is 60%; in the assay on Dicots [2], 72%; with Dicots [3] it was 80%; in the assay on Monocots [4], 63%. In addition, the pest or weed control at 4483.4 g/ha with Monocots [1] stood at 40%; with Dicots [2] it was 40%; with Dicots [3], 98%; in the assay on Monocots [4], 45%.

For the molecule `O=[N+]([O-])c1ccc(Oc2ccc(C(F)(F)F)cc2Cl)cc1OCC1CO1` (centres unmarked) [Example 38], the pest or weed control at 2241.7 g/ha in the assay on Monocots [1] came out at 62%; with Dicots [2] it was 68%; with Dicots [3] it was 58%; in the assay with Monocots [4], 51%. The pest or weed control at 4483.4 g/ha was determined as 47% with Monocots [1], 86% with Dicots [2], 98% in the assay with Dicots [3] and 43% in the assay with Monocots [4].

With `O=[N+]([O-])c1ccc(Oc2ccc(C(F)(F)F)cc2Cl)cc1OCC(O)CO` (stereo not drawn) [Example 39, 2-chloro-α,α,α-trifluoro-p-tolyl-3-(2,3-dihydroxypropoxy)-4-nitrophenyl ether], the pest or weed control at 2241.7 g/ha turned out to be 77% with Monocots [1], 80% in the assay with Dicots [2], 100% in the assay on Dicots [3] and 61% in the assay with Monocots [4]. Besides, the pest or weed control at 4483.4 g/ha amounted to 65% in the assay on Monocots [1], 99% with Dicots [2], 98% in the assay with Dicots [3] and 64% with Monocots [4].

On to `CCCN(CCC)c1cc(Oc2ccc(C(F)(F)F)cc2Cl)ccc1[N+](=O)[O-]` [Example 41], for which the pest or weed control at 2241.7 g/ha turned out to be 84% in the assay on Monocots [1], 62% in the assay on Dicots [2], 94% in the assay with Dicots [3] and 56% with Monocots [4]. In addition, the pest or weed control at 4483.4 g/ha was 60% with Monocots [1], 96% in the assay on Dicots [2], 95% in the assay with Dicots [3] and 71% with Monocots [4].

For `CS(=O)(=O)CCOc1cc(Oc2ccc(C(F)(F)F)cc2Cl)ccc1[N+](=O)[O-]` [Example 42], the pest or weed control at 2241.7 g/ha in the assay on Monocots [1] came out at 83%; in the assay with Dicots [2], 60%; in the assay with Dicots [3], 88%; with Monocots [4], 63%. Besides, the pest or weed control at 4483.4 g/ha in the assay with Monocots [1] was 62%; in the assay with Dicots [2], 80%; in the assay with Dicots [3], 98%; in the assay with Monocots [4] it was 38%.

Turning to `CN(CCO)c1cc(Oc2ccc(C(F)(F)F)cc2Cl)ccc1[N+](=O)[O-]` [Example 43], the pest or weed control at 2241.7 g/ha with Monocots [1] was 99%; with Dicots [2] it was 100%; in the assay with Dicots [3], 80%; in the assay on Monocots [4], 61%. In addition, the pest or weed control at 4483.4 g/ha stood at 0% in the assay on Monocots [1], 48% in the assay on Dicots [2], 47% in the assay on Dicots [3] and 2% with Monocots [4].

For the molecule `CNC(=O)Nc1cc(Oc2ccc(C(F)(F)F)cc2Cl)ccc1[N+](=O)[O-]` [Example 44], the pest or weed control at 2241.7 g/ha in the assay with Monocots [1] came to 0%; in the assay on Dicots [2], 17%; with Dicots [3] it was 10%; in the assay on Monocots [4], 7%. Moreover, the pest or weed control at 4483.4 g/ha in the assay on Monocots [1] amounted to 66%; in the assay on Dicots [2] it was 96%; in the assay on Dicots [3], 98%; in the assay on Monocots [4], 60%.

(Values after patent USRE31731E, “Herbicidal 4-trifluoromethyl-4-nitrodiphenyl ethers” (priority 1978, dated 1984).)
